Source: PMC3140712 (2011)
Counter-ions that a name gives are not always drawn.

Molecular target: P2Y1 receptor (Homo sapiens, UniProt P47900)
Experiment: intracellular calcium mobilization
Type: cell-based

Sequence of P2Y1 receptor (P47900 whole entry): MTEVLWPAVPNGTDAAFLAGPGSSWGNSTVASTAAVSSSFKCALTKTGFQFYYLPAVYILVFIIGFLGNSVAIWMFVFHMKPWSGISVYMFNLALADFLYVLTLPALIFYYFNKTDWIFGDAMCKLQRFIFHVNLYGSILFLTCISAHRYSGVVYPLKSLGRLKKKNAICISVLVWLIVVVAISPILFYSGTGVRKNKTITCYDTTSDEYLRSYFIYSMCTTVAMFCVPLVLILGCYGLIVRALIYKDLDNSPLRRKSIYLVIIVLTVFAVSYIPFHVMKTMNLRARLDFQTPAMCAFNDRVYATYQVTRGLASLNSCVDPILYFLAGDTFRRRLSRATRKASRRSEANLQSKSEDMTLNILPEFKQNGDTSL

CSc1nc(N)c2ncn([C@H]3[C@H](O)[C@H](O)[C@]4(COP(=O)(O)OP(=O)(O)O)C[C@H]34)c2n1 [MRS2365, [[(1R,2R,3S,4R,5S)-4-[6-amino-2-(methylthio)-9H-purin-9-yl]-2,3-dihydroxybicyclo[3.1.0]hex-1-yl]methyl] diphosphoric acid mono ester trisodium salt]
EC50: 5.28 ± 1.96 nM
